Where “and” joins values, the source holds several entries; their conditions need not be identical. Identical values can stand only once.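 1) Cells in 96-well plates. 2) Compound, 48 h, 5 concentrations. 3) Linear interpolation between surrounding doses. 4) Unreached endpoint = highest concentration. At the GI50, growth is halved. Definition used: TGI = concentration required for complete inhibition of growth.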
Experiments:
Test in all cases: NCI anticancer screen, dose series, 48 h
BT-549 breast = tested on: BT-549 breast
MCF7 breast = tested on: MCF7 breast
DU-145 prostate = tested on: DU-145 prostate
XF 498 CNS = tested on: XF 498 CNS
HOP-18 NSCLC = tested on: HOP-18 NSCLC
MDA-N = tested on: MDA-N
RXF-631 renal = tested on: RXF-631 renal

SMILES	GI50 (BT-549 breast)	TGI (BT-549 breast)	GI50 (MCF7 breast)	TGI (MCF7 breast)	GI50 (DU-145 prostate)	TGI (DU-145 prostate)	further results
Cc1sc2c(c1C)C(c1ccc(Cl)cc1)=N[C@@H](CC(=O)OC(C)(C)C)c1nnc(C)n1-2	1.15 µM and 3.1 µM	20.8 µM and 20 µM	0.117 µM and 0.06 µM	17.9 µM and 13.6 µM	13.4 µM and 8.51 µM	33.3 µM and 22.1 µM	
Cn1c2ccc(Br)cc2c2c3c(c4c5ccccc5[nH]c4c21)C(=O)N(O)C3=O	0.149 µM	0.45 µM	0.04 µM	0.309 µM	0.0871 µM	0.57 µM	
Cc1cn2c(/C=N/N=C(N)N)c(-c3cccs3)nc2s1	8.07 µM	22.8 µM	2.79 µM	13.7 µM			
CCC(CNc1cc(OC)cc2cccnc12)NC1CCCCC1 (configuration not stated)			20.7 µM	> 100 µM	35.5 µM	> 100 µM	
O=C(OCc1ncc(-c2ccc(C(F)(F)F)cc2)c(NC2CCCCCC2)n1)c1c(F)c(F)c(F)c(F)c1F	9 µM	27.1 µM	2.06 µM	5.81 µM	12.5 µM	25.3 µM	
O=C(Nc1cccc(O)c1)C(=O)C(C(=O)c1ccc(Cl)c(Cl)c1)C1OC(=O)c2ccccc21 (configuration not stated)							TGI (XF 498 CNS): 25.6 µM; TGI (HOP-18 NSCLC): > 100 µM
Cc1cc(N2CCSCC2)nc(NC2CCCC(Nc3ccnc4cc(Cl)ccc34)C2)n1 (configuration not stated)	1.71 µM	3.79 µM			3.13 µM	12.5 µM	
COc1ccc(OC)c2c1[nH]c(=O)c1c3ncccc3cn21	> 100 µM	> 100 µM	2.17 µM	27.3 µM	3.45 µM	14.7 µM	
Cc1nc(N2CCC3(CC2)CO[C@@H](C)[C@H]3N)c(CO)nc1Sc1ccnc(N)c1Cl	6.56 µM	> 100 µM	> 92.4 µM	> 100 µM	45.3 µM	> 100 µM	
CC(C)(C)CC(C)(C)NCc1cc(C(C)(C)C)cc(CNC(C)(C)CC(C)(C)C)c1O	4.15 µM	14.9 µM	3.12 µM	11.3 µM	6.07 µM	18.5 µM	
CO[C@H](C(=O)[C@@H](O)[C@@H](C)O)[C@@H]1Cc2cc3cc(OC4CC(OC5CC(O)C(O)C(C)O5)C(O)C(C)O4)c(C)c(O)c3c(O)c2C(=O)[C@H]1OC1CC(OC2CC(OC3CC(C)(O)C(O)C(C)O3)C(O)C(C)O2)C(O)C(C)O1 (some centres not stated)			0.0143 µg/mL and 0.0152 µg/mL				GI50 (HOP-18 NSCLC): 0.000558 µM
COc1cc(Nc2nc3ccccc3cc2C(=O)Nc2ccc(F)c(F)c2)cc(OC)c1OC	2.48 µM	6.54 µM	2.16 µM	8.4 µM	4.25 µM	> 100 µM	
O=C(/C=C/c1ccccc1)n1c(-c2ccc(Cl)cc2)nc2ccccc21	1.67 µM	3.22 µM	1.01 µM	9.92 µM	1.8 µM	4.93 µM	
CCc1cccc(CC)c1NC(=O)C1=C(C)NC(C)=C(C(=O)Nc2c(CC)cccc2CC)C1c1ccc([N+](=O)[O-])cc1							TGI (XF 498 CNS): 39.5 µM
CNC(=O)Cc1nc(-c2cccc(NS(=O)(=O)c3c(F)cccc3F)c2F)c(-c2ccnc(Nc3ccccc3)n2)s1	> 35.8 µM	> 50 µM	19.1 µM	> 50 µM	12.6 µM	> 50 µM	
Cc1c(C(=O)/C=C/c2ccc(N(C)C)cc2)c(=O)n(-c2ccccc2)n1C							TGI (XF 498 CNS): > 100 µM
Cc1cccc(C)c1NC(=O)Nc1ccc(S(N)(=O)=O)cc1		> 100 µM		> 100 µM		> 100 µM	TGI (MDA-N): > 100 µM
CN1C(=O)C(=O)c2cc3c(c4c2c1cc1ccccc14)OCO3							TGI (XF 498 CNS): > 100 µM; TGI (HOP-18 NSCLC): > 100 µM

SMILES	GI50 (BT-549 breast)	TGI (BT-549 breast)	GI50 (MCF7 breast)	TGI (MCF7 breast)	GI50 (DU-145 prostate)	TGI (DU-145 prostate)	further results
COc1ccc(-c2c3c(n(C4OC(COC(C)=O)C(OC(C)=O)C(OC(C)=O)C4OC(C)=O)c(=S)c2C#N)CC(C)(C)CC3=O)cc1 (configuration not stated)		93.3 µM and > 100 µM		> 100 µM	46.8 µM and > 100 µM	> 100 µM	TGI (MDA-N): > 100 µM
COc1ccc2nc3cc([N+](=O)[O-])ccc3c(NCCCN(C)C)c2c1	2.65 µM	5.26 µM	0.0304 µM	0.204 µM	0.175 µM	11.9 µM	GI50 (MDA-N): 0.491 µM; TGI (MDA-N): 2 µM
COC1=CC(=O)C2C(C1=O)C(c1ccccc1)[C@H]2C (some centres not stated)							TGI (XF 498 CNS): 49.1 µM
CC/C(CC(=O)CCC(=O)Nc1ccccc1[N+](=O)[O-])=N/NC(=O)C[n+]1ccccc1							TGI (HOP-18 NSCLC): > 100 µM; TGI (RXF-631 renal): > 100 µM
C=C[C@@]1(O)CCCC2=C(C(=O)OCC)CC[C@]21C							TGI (HOP-18 NSCLC): > 100 µM
COc1cc(CNC2c3cc4c(cc3C(c3cc(OC)c(OC)c(OC)c3)[C@H]3C(=O)OCC23)OCO4)cc(OC)c1OC (some centres not stated)							TGI (XF 498 CNS): 8.07 µM; TGI (HOP-18 NSCLC): > 100 µM
CCN(CC)CCCNC(=O)c1c2c(n3ccccc13)C(=O)c1ncccc1C2=O	1.94 µM	4.06 µM	0.298 µM	1.76 µM	1.23 µM	2.56 µM	
Cc1ccc(S(=O)(=O)NNC(=O)c2cc(C)c(C)cc2N)cc1		> 100 µM		> 100 µM		> 100 µM	TGI (MDA-N): > 100 µM
O=C1C(Cl)C(c2ccccc2O)N1n1cnc2ccccc2c1=O (configuration not stated)							TGI (XF 498 CNS): 17.9 µM; TGI (HOP-18 NSCLC): > 100 µM
COc1cccc(C2c3cc4c(cc3OC(N3CCCC3)C2C)OCO4)c1O (configuration not stated)		> 43 µM		> 83.6 µM		> 36.9 µM	TGI (MDA-N): 4.38 µM
N#C/C(=C1\SC(N=Nc2ccccc2)C(=O)N1c1ccccc1)c1nc2ccccc2[nH]1 (configuration not stated)							TGI (XF 498 CNS): 85 µM
C=C(Nc1ccc([N+](=O)[O-])cc1[N+](=O)[O-])c1c/c(=N\NC(N)=S)c2ccccc2o1		> 100 µM		> 100 µM		> 100 µM	TGI (MDA-N): > 100 µM
C=C1CCC2C(C)(COC(=O)CC)C(OC(=O)CC)CCC2(C)C1C/C=C1/C(=O)OCC1OC(=O)CC (configuration not stated)					1.82 µM	3.25 µM	
COc1ccccc1CNCCCN1C(=O)c2ccc3c4c(ccc(c24)C1=O)C(=O)N(CCCCNCCCN)C3=O	2.23 µM	4.51 µM	0.472 µM	1.35 µM	1.59 µM	2.99 µM	
COc1cccc(NC(=O)c2sc3nc4c(cc3c2N)C(=O)CCC4)c1	0.282 µM	> 90.5 µM	0.0443 µM	> 100 µM	0.231 µM	> 100 µM	
CCOC(=O)C(C)(C)Oc1ccc(/C=C/C(=O)c2ccc(Cl)cc2)cc1							TGI (XF 498 CNS): 39.1 µM; TGI (RXF-631 renal): 38.5 µM
CN(C)C=C1C(Cl)=C(C=O)CC(C=O)=C1Cl							TGI (HOP-18 NSCLC): 26.8 µM
Cc1cc(Cl)ccc1NC(=O)C(=O)C(C(=O)c1ccc2ccccc2c1)C1OC(=O)c2ccccc21 (configuration not stated)							TGI (HOP-18 NSCLC): 18.1 µM; TGI (RXF-631 renal): 31.2 µM
